In ChEMBL document CHEMBL3400000, “The discovery of potent agonists for GPR88, an orphan GPCR, for the potential treatment of CNS disorders” (Bioorg Med Chem Lett, 2015):
pEC50: −log10 of the molar value.

What follows are compounds tested against G protein-coupled receptor 88 (Homo sapiens, UniProt Q9GZN0) (assay: Agonist activity at GPR88 (unknown origin) transfected into cells assessed as cAMP accumulation by HTRF assay).
Assay type: functional

Chain of G protein-coupled receptor 88 (Q9GZN0 whole entry): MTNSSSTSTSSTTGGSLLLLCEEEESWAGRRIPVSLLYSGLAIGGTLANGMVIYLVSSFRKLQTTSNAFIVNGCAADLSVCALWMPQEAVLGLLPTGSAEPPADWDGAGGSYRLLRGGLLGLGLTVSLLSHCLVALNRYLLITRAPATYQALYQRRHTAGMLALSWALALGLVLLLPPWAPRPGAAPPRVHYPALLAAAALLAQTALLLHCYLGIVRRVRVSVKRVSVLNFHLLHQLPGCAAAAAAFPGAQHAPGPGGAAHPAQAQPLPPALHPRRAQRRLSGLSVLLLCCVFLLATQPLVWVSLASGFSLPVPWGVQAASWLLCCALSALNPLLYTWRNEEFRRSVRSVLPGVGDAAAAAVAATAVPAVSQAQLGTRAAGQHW

Going from `CC[C@H](C)[C@H](N)CN(C(=O)[C@@H]1C[C@H]1c1ccc(OC)cc1)c1ccc(-c2ccccc2)cc1` to `CC[C@H](C)[C@H](N)CN(C(=O)[C@@H]1C[C@H]1c1ccc(Cl)cc1)c1ccc(-c2ccccc2)cc1`, the pEC50 rises from less than 4.60 to 5.37. The second is the more potent here.

First: N[C@H](CN(C(=O)[C@@H]1C[C@H]1c1ccccc1)c1ccc(-c2ccccc2)cc1)c1ccccc1
Second: CC(C)[C@H](N)CN(C(=O)[C@@H]1C[C@H]1c1ccccc1)c1ccc(-c2ccccc2)cc1
The pEC50 of the first is 0.63 log units lower: 8.33 for the first, 8.96 for the second. The second is the more potent here.

Going from `CO[C@H](C)[C@H](N)CN(C(=O)[C@@H]1C[C@H]1c1ccccc1)c1ccc(-c2ccccc2)cc1` to `CC[C@@H](C)[C@H](N)CN(C(=O)[C@@H]1C[C@H]1c1ccccc1)c1ccc(-c2ccccc2)cc1`, the pEC50 falls from 9.17 to 8.85 (0.32 log units).

Going from `NC1(CN(C(=O)[C@@H]2C[C@H]2c2ccccc2)c2ccc(-c3ccccc3)cc2)CCCC1` to `O=C([C@@H]1C[C@H]1c1ccccc1)N(CC1CCCNC1)c1ccc(-c2ccccc2)cc1` (some centres not stated), the pEC50 falls from 9.24 to 8.00 (1.24 log units).

Going from `CC(C)(N)CN(C(=O)[C@@H]1C[C@H]1c1ccccc1)c1ccc(-c2ccccc2)cc1` to `CC(C)(C)[C@H](N)CN(C(=O)[C@@H]1C[C@H]1c1ccccc1)c1ccc(-c2ccccc2)cc1`, the pEC50 falls from 8.85 to 7.96 (0.89 log units).

Going from `CC(C)C[C@H](N)CCN(C(=O)[C@@H]1C[C@H]1c1ccccc1)c1ccc(-c2ccccc2)cc1` to `CC(C)C[C@@H](N)CN(C(=O)[C@@H]1C[C@H]1c1ccccc1)c1ccc(-c2ccccc2)cc1`, the pEC50 rises from 8.52 to 8.74 (0.22 log units).

Compared with `CCC(CC)C(N)CCN(C(=O)[C@@H]1C[C@H]1c1ccccc1)c1ccc(-c2ccccc2)cc1` (some centres not stated), `CC[C@H](C)[C@H](N)CN(C(=O)[C@@H]1C[C@H]1c1ccccc1)c1ccc(-c2ccccc2)cc1` (racemic) is 2.60 log units lower in pEC50: 8.70 for the first, 6.10 for the second. The first is the more potent here.

First: CC(C)CCNCCN(C(=O)[C@@H]1C[C@H]1c1ccccc1)c1ccc(-c2ccccc2)cc1
Second: CC(C)CCCN(C(=O)[C@@H]1C[C@H]1c1ccccc1)c1ccc(-c2ccccc2)cc1
The pEC50 of the first is higher: 8.29 for the first, less than 7.00 for the second. The first is the more potent here.

First: CCC(C)CNCCN(C(=O)[C@@H]1C[C@H]1c1ccccc1)c1ccc(-c2ccccc2)cc1 (some centres not stated)
Second: CN[C@@H](CC(C)C)CN(C(=O)[C@@H]1C[C@H]1c1ccccc1)c1ccc(-c2ccccc2)cc1
The pEC50 of the first is 0.37 log units lower: 8.33 for the first, 8.70 for the second. The second is the more potent here.

Going from `O=C([C@@H]1C[C@H]1c1ccccc1)N(CCNCC1CCCCC1)c1ccc(-c2ccccc2)cc1` to `O=C([C@@H]1C[C@H]1c1ccccc1)N(CCNCC1CCCC1)c1ccc(-c2ccccc2)cc1`, the pEC50 rises from 8.18 to 8.60 (0.42 log units). The second is the more potent here.

Going from `CC[C@H](C)[C@H](N)CN(C(=O)[C@@H]1C[C@H]1c1cccc(Cl)c1)c1ccc(-c2ccccc2)cc1` to `CC[C@H](C)[C@H](N)CN(C(=O)[C@@H]1C[C@H]1c1cccc(F)c1)c1ccc(-c2ccccc2)cc1`, the pEC50 rises from 5.66 to 6.25 (0.59 log units). The second is the more potent here.

Compared with `CC[C@H](C)[C@H](N)CN(C(=O)[C@@H]1C[C@H]1c1ccccc1Cl)c1ccc(-c2ccccc2)cc1`, `CC[C@H](C)[C@H](N)CN(C(=O)[C@@H]1C[C@H]1c1ccccc1F)c1ccc(-c2ccccc2)cc1` is higher in pEC50: less than 4.60 for the first, 6.19 for the second. The second is the more potent here.

First: CC[C@H](C)[C@H](N)CN(C(=O)[C@@H]1C[C@H]1c1cccc(OC)c1)c1ccc(-c2ccccc2)cc1
Second: CC[C@H](C)[C@H](N)CN(C(=O)[C@@H]1C[C@H]1c1cccc(C)c1)c1ccc(-c2ccccc2)cc1
The pEC50 of the first is 0.40 log units lower: 5.52 for the first, 5.92 for the second. The second is the more potent here.

First: CC[C@H](C)[C@H](N)CN(C(=O)[C@@H]1C[C@H]1c1ccc(F)cc1)c1ccc(-c2ccccc2)cc1
Second: CC[C@H](C)[C@H](N)CN(C(=O)[C@@H]1C[C@H]1c1ccc(C#N)cc1)c1ccc(-c2ccccc2)cc1
The pEC50 of the first is higher: 6.22 for the first, less than 4.60 for the second. The first is the more potent here.

`CC[C@H](C)[C@H](N)CN(C(=O)[C@@H]1C[C@H]1c1cccc(C#N)c1)c1ccc(-c2ccccc2)cc1` and `CC[C@H](C)[C@H](N)CN(C(=O)[C@@H]1C[C@H]1c1cccnc1)c1ccc(-c2ccccc2)cc1` are within 0.2 log units of each other in pEC50: 5.80 for the first, 5.82 for the second.

First: CC[C@H](C)[C@H](N)CN(C(=O)[C@@H]1C[C@H]1C1CCCCC1)c1ccc(-c2ccccc2)cc1
Second: CC[C@H](C)[C@H](N)CN(C(=O)[C@@H]1C[C@H]1c1nccs1)c1ccc(-c2ccccc2)cc1
The pEC50 of the first is lower: less than 4.60 for the first, 6.68 for the second.

Compared with `CC[C@H](C)[C@H](N)CN(C(=O)[C@@H]1C[C@H]1c1cc(F)ccc1F)c1ccc(-c2ccccc2)cc1`, `CC[C@H](C)[C@H](N)CN(C(=O)[C@@H]1C[C@H]1c1ccc(F)cc1F)c1ccc(-c2ccccc2)cc1` is 0.22 log units lower in pEC50: 6.11 for the first, 5.89 for the second. The first is the more potent here.

`CC[C@H](C)[C@H](N)CN(C(=O)[C@@H]1C[C@H]1c1cc(F)cc(F)c1)c1ccc(-c2ccccc2)cc1` and `CC[C@H](C)[C@H](N)CN(C(=O)[C@@H]1C[C@H]1c1ccc(F)c(F)c1)c1ccc(-c2ccccc2)cc1` are within 0.2 log units of each other in pEC50: 6.02 for the first, 6.14 for the second.

First: CC[C@H](C)[C@H](N)CN(C(=O)[C@@H]1C[C@H]1c1c(F)cccc1F)c1ccc(-c2ccccc2)cc1
Second: CC[C@H](C)[C@H](N)CN(C(=O)[C@@H]1C[C@H]1c1cccs1)c1ccc(-c2ccccc2)cc1
The pEC50 of the first is 1.48 log units lower: 4.96 for the first, 6.44 for the second. The second is the more potent here.

`CC[C@H](C)[C@H](N)CN(C(=O)[C@@H]1C[C@H]1c1ccccn1)c1ccc(-c2ccccc2)cc1` and `CC[C@H](C)[C@H](N)CN(C(=O)[C@@H]1C[C@H]1c1ncccn1)c1ccc(-c2ccccc2)cc1` are the same in pEC50: 6.89 for the first, 6.89 for the second.

First: CC[C@H](C)[C@H](N)CN(C(=O)[C@@H]1C[C@H]1c1ccncc1)c1ccc(-c2ccccc2)cc1
Second: CC[C@H](C)[C@H](N)CN(C(=O)[C@@H]1C[C@H]1c1ccoc1)c1ccc(-c2ccccc2)cc1
The pEC50 of the first is 0.42 log units lower: 5.82 for the first, 6.24 for the second. The second is the more potent here.

Going from `CC[C@H](C)[C@H](N)CN(C(=O)[C@@H]1C[C@H]1c1cncnc1)c1ccc(-c2ccccc2)cc1` to `CC[C@H](C)[C@H](N)CN(C(=O)[C@@H]1C[C@H]1c1ccsc1)c1ccc(-c2ccccc2)cc1`, the pEC50 rises from 4.72 to 6.35 (1.63 log units). The second is the more potent here.

Going from `CC[C@H](C)[C@H](N)CN(C(=O)[C@@H]1C[C@H]1c1nc(C)cs1)c1ccc(-c2ccccc2)cc1` to `CC[C@H](C)[C@H](N)CN(C(=O)[C@@H]1C[C@H]1c1ncc(C)s1)c1ccc(-c2ccccc2)cc1`, the pEC50 falls from 6.14 to 5.89 (0.25 log units). The first is the more potent here.

Going from `CC[C@H](C)[C@H](N)CN(C(=O)[C@@H]1C[C@H]1c1nc(C)c(C)s1)c1ccc(-c2ccccc2)cc1` to `CC[C@H](C)[C@H](N)CN(C(=O)[C@@H]1C[C@H]1c1csc(C)n1)c1ccc(-c2ccccc2)cc1`, the pEC50 rises from 5.44 to 5.82 (0.38 log units).

Going from `CC(C)C[C@H](N)CN(C(=O)[C@@H]1C[C@H]1c1ccccc1)c1cccc(-c2ccccc2)c1` to `CC(C)C[C@H](N)CN(C(=O)[C@@H]1C[C@H]1c1ccccc1)c1ccc(-c2ccccc2)cc1` (racemic), the pEC50 rises from 4.64 to 6.06 (1.42 log units).

First: CC(C)C[C@H](N)CN(C(=O)[C@@H]1C[C@H]1c1ccccc1)c1ccccc1-c1ccccc1
Second: Cc1ccccc1-c1ccc(N(C[C@@H](N)CC(C)C)C(=O)[C@@H]2C[C@H]2c2ccccc2)cc1
The pEC50 of the first is 0.26 log units lower: 5.21 for the first, 5.47 for the second. The second is the more potent here.

`CC(C)C[C@H](N)CN(C(=O)[C@@H]1C[C@H]1c1ccccc1)c1ccc(-c2cccnc2)cc1` and `CC(C)C[C@H](N)CN(C(=O)[C@@H]1C[C@H]1c1ccccc1)c1ccc(-c2ccncc2)cc1` are within 0.2 log units of each other in pEC50: 5.00 for the first, 4.89 for the second.

`CC(C)C[C@H](N)CN(C(=O)[C@@H]1C[C@H]1c1ccccc1)c1ccc(-c2ccsc2)cc1` and `CC(C)C[C@H](N)CN(C(=O)[C@@H]1C[C@H]1c1ccccc1)c1ccc(-c2cccs2)cc1` are within 0.2 log units of each other in pEC50: 5.92 for the first, 5.82 for the second.

Compared with `CC(C)C[C@H](N)CN(C(=O)[C@@H]1C[C@H]1c1ccccc1)c1ccc(-c2ccoc2)cc1`, `Cc1ccc(-c2ccc(N(C[C@@H](N)CC(C)C)C(=O)[C@@H]3C[C@H]3c3ccccc3)cc2)cc1` is 0.74 log units higher in pEC50: 5.70 for the first, 6.44 for the second. The second is the more potent here.

`CC(C)C[C@H](N)CN(C(=O)[C@@H]1C[C@H]1c1ccccc1)c1ccc(C2=CCCC2)cc1` and `CC(C)C[C@H](N)CN(C(=O)[C@@H]1C[C@H]1c1ccccc1)c1ccc(C2=CCCCC2)cc1` are the same in pEC50: 5.92 for the first, 5.92 for the second.

Going from `CC(C)C[C@H](N)CN(C(=O)[C@@H]1C[C@H]1c1ccccc1)c1ccc(C2=CCCCCC2)cc1` to `Cc1cccc(-c2ccc(N(C[C@@H](N)CC(C)C)C(=O)[C@@H]3C[C@H]3c3ccccc3)cc2)c1`, the pEC50 rises from 5.68 to 5.92 (0.24 log units). The second is the more potent here.

Going from `COc1ccc(-c2ccc(N(C[C@@H](N)CC(C)C)C(=O)[C@@H]3C[C@H]3c3ccccc3)cc2)cc1` to `CC(C)C[C@H](N)CN(C(=O)[C@@H]1C[C@H]1c1ccccc1)c1ccc(-c2ccc(F)cc2)cc1`, the pEC50 falls from 6.48 to 6.05 (0.43 log units). The first is the more potent here.

Compared with `COc1cccc(-c2ccc(N(C[C@@H](N)CC(C)C)C(=O)[C@@H]3C[C@H]3c3ccccc3)cc2)c1`, `CC(C)C[C@H](N)CN(C(=O)[C@@H]1C[C@H]1c1ccccc1)c1ccc(-c2cccc(F)c2)cc1` is 0.28 log units lower in pEC50: 5.96 for the first, 5.68 for the second. The first is the more potent here.

First: COc1ccccc1-c1ccc(N(C[C@@H](N)CC(C)C)C(=O)[C@@H]2C[C@H]2c2ccccc2)cc1
Second: CC(C)C[C@H](N)CN(C(=O)[C@@H]1C[C@H]1c1ccccc1)c1ccc(-c2ccccc2F)cc1
The pEC50 of the first is 0.31 log units lower: 5.49 for the first, 5.80 for the second. The second is the more potent here.

Going from `CC(C)C[C@H](N)CN(C(=O)C(C)Cc1ccccc1)c1ccc(-c2ccccc2)cc1` (some centres not stated) to `CC[C@H](C)[C@@H](CN(C(=O)[C@@H]1C[C@H]1c1ccccc1)c1ccc(-c2ccccc2)cc1)NC(C)=O`, the pEC50 falls from 8.92 to 8.24 (0.68 log units).

Compared with `N[C@@H](CC1CCCCC1)CN(C(=O)[C@@H]1C[C@H]1c1ccccc1)c1ccc(-c2ccccc2)cc1`, `N[C@H](CN(C(=O)[C@@H]1C[C@H]1c1ccccc1)c1ccc(-c2ccccc2)cc1)C1CCCCC1` is 0.41 log units higher in pEC50: 8.77 for the first, 9.18 for the second.
